Results: PubChem BioAssay (NCI)
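Cells were grown in 96-well plates and exposed to each compound for 48 hours at five concentrations; endpoints were interpolated linearly between bracketing concentrations, or set to the highest concentration if not reached. GI50 = concentration required for 50% inhibition of growth. At the TGI there is no net growth.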

What was measured:
Assay in all cases: NCI anticancer screen, dose series, 48 h
UACC-62 melanoma = test system: UACC-62 melanoma
M19-MEL melanoma = test system: M19-MEL melanoma
MALME-3M melanoma = test system: MALME-3M melanoma
UACC-257 melanoma = test system: UACC-257 melanoma
SN12C renal = test system: SN12C renal
MOLT-4 leukemia = test system: MOLT-4 leukemia
HT29 colon = test system: HT29 colon
XF 498 CNS = test system: XF 498 CNS
SW-620 colon = test system: SW-620 colon
SK-MEL-5 melanoma = test system: SK-MEL-5 melanoma
UO-31 renal = test system: UO-31 renal
OVCAR-5 ovarian = test system: OVCAR-5 ovarian
DLD-1 colon = test system: DLD-1 colon
NCI-H226 lung = test system: NCI-H226 lung
HL-60(TB) leukemia = test system: HL-60(TB) leukemia
SK-MEL-2 melanoma = test system: SK-MEL-2 melanoma
SK-OV-3 ovarian = test system: SK-OV-3 ovarian
IGROV1 ovarian = test system: IGROV1 ovarian
RXF-631 renal = test system: RXF-631 renal
ACHN renal = test system: ACHN renal
HOP-18 NSCLC = test system: HOP-18 NSCLC
SNB-19 CNS = test system: SNB-19 CNS
CAKI-1 renal = test system: CAKI-1 renal
K-562 leukemia = test system: K-562 leukemia
HOP-92 NSCLC = test system: HOP-92 NSCLC
SNB-75 CNS = test system: SNB-75 CNS
TK-10 renal = test system: TK-10 renal
OVCAR-8 ovarian = test system: OVCAR-8 ovarian
U251 CNS = test system: U251 CNS
EKVX NSCLC = test system: EKVX NSCLC
DMS 114 small cell lung = test system: DMS 114 small cell lung
LXFL 529 NSCLC = test system: LXFL 529 NSCLC
M14 melanoma = test system: M14 melanoma
HCC-2998 colon = test system: HCC-2998 colon
SF-295 CNS = test system: SF-295 CNS
NCI-H460 lung = test system: NCI-H460 lung
CCRF-CEM leukemia = test system: CCRF-CEM leukemia
KM20L2 colon = test system: KM20L2 colon
LOX IMVI melanoma = test system: LOX IMVI melanoma
DMS 273 small cell lung = test system: DMS 273 small cell lung
OVCAR-3 ovarian = test system: OVCAR-3 ovarian
KM12 colon = test system: KM12 colon
SK-MEL-28 melanoma = test system: SK-MEL-28 melanoma
HOP-62 NSCLC = test system: HOP-62 NSCLC
HCT-116 colon = test system: HCT-116 colon
COLO 205 colon = test system: COLO 205 colon
RPMI-8226 leukemia = test system: RPMI-8226 leukemia
RXF 393 renal = test system: RXF 393 renal
786-0 renal = test system: 786-0 renal
SNB-78 CNS = test system: SNB-78 CNS
A549 NSCLC = test system: A549 NSCLC
HCT-15 colon = test system: HCT-15 colon
OVCAR-4 ovarian = test system: OVCAR-4 ovarian
SF-539 CNS = test system: SF-539 CNS
NCI-H522 lung = test system: NCI-H522 lung
NCI-H23 lung = test system: NCI-H23 lung
SF-268 CNS = test system: SF-268 CNS

C[Si](C)(C)CC(N)=O
TGI (UACC-62 melanoma): > 100 µM
TGI (M19-MEL melanoma): > 100 µM
TGI (MALME-3M melanoma): > 100 µM
TGI (UACC-257 melanoma): > 100 µM
TGI (SN12C renal): > 100 µM
TGI (MOLT-4 leukemia): > 100 µM
TGI (HT29 colon): > 100 µM
TGI (XF 498 CNS): > 100 µM
TGI (SW-620 colon): > 100 µM
TGI (SK-MEL-5 melanoma): > 100 µM
TGI (UO-31 renal): > 100 µM
TGI (OVCAR-5 ovarian): > 100 µM
TGI (DLD-1 colon): > 100 µM
TGI (NCI-H226 lung): > 100 µM
TGI (HL-60(TB) leukemia): > 100 µM
TGI (SK-MEL-2 melanoma): > 100 µM
TGI (SK-OV-3 ovarian): > 100 µM
TGI (IGROV1 ovarian): > 100 µM
TGI (RXF-631 renal): > 100 µM
TGI (ACHN renal): > 100 µM
TGI (HOP-18 NSCLC): > 100 µM
TGI (SNB-19 CNS): > 100 µM
TGI (CAKI-1 renal): > 100 µM
TGI (K-562 leukemia): > 100 µM
TGI (HOP-92 NSCLC): > 100 µM
TGI (SNB-75 CNS): > 100 µM
TGI (TK-10 renal): > 100 µM
TGI (OVCAR-8 ovarian): > 100 µM
TGI (U251 CNS): > 100 µM
TGI (EKVX NSCLC): > 100 µM
TGI (DMS 114 small cell lung): > 100 µM
TGI (LXFL 529 NSCLC): > 100 µM
TGI (M14 melanoma): > 100 µM
TGI (HCC-2998 colon): > 100 µM
TGI (SF-295 CNS): > 100 µM
TGI (NCI-H460 lung): > 100 µM
TGI (CCRF-CEM leukemia): > 100 µM
TGI (KM20L2 colon): > 100 µM
TGI (LOX IMVI melanoma): > 100 µM
TGI (DMS 273 small cell lung): > 100 µM
TGI (OVCAR-3 ovarian): > 100 µM
TGI (KM12 colon): > 100 µM
TGI (SK-MEL-28 melanoma): > 100 µM
TGI (HOP-62 NSCLC): > 100 µM
TGI (HCT-116 colon): > 100 µM
TGI (COLO 205 colon): > 100 µM
TGI (RPMI-8226 leukemia): > 100 µM
TGI (RXF 393 renal): > 100 µM
TGI (786-0 renal): > 100 µM
TGI (SNB-78 CNS): > 100 µM
TGI (A549 NSCLC): > 100 µM
TGI (HCT-15 colon): > 100 µM
TGI (OVCAR-4 ovarian): > 100 µM

C[PH+](C)C.C[PH+](C)C.[Au]
TGI (UACC-62 melanoma): 18.2 µM
TGI (M19-MEL melanoma): 28.1 µM
TGI (SF-539 CNS): 24.6 µM
TGI (MALME-3M melanoma): 4.02 µM
TGI (UACC-257 melanoma): 29.3 µM
TGI (SN12C renal): 25.4 µM
TGI (MOLT-4 leukemia): 13.9 µM
TGI (HT29 colon): 20.8 µM
TGI (XF 498 CNS): 7.8 µM
TGI (SW-620 colon): 9.22 µM
TGI (SK-MEL-5 melanoma): 13.4 µM
TGI (UO-31 renal): 54.8 µM
TGI (OVCAR-5 ovarian): 24.9 µM
TGI (DLD-1 colon): 11.2 µM
TGI (NCI-H226 lung): 34.4 µM
TGI (HL-60(TB) leukemia): 2.51 µM
TGI (SK-MEL-2 melanoma): 13.6 µM
TGI (SK-OV-3 ovarian): > 90.2 µM
TGI (IGROV1 ovarian): 35.7 µM
TGI (RXF-631 renal): 13.1 µM
TGI (ACHN renal): > 68.4 µM
TGI (HOP-18 NSCLC): 10.4 µM
TGI (SNB-19 CNS): 21.2 µM
TGI (CAKI-1 renal): 32.8 µM
TGI (K-562 leukemia): 10.6 µM
TGI (HOP-92 NSCLC): 6.58 µM
TGI (SNB-75 CNS): 30.1 µM
TGI (TK-10 renal): 35.4 µM
TGI (OVCAR-8 ovarian): 19 µM
TGI (U251 CNS): 15.2 µM
GI50 (NCI-H522 lung): 0.247 µM
TGI (NCI-H522 lung): 0.771 µM
TGI (EKVX NSCLC): 12.3 µM
TGI (DMS 114 small cell lung): 15.6 µM
TGI (LXFL 529 NSCLC): 3.48 µM
TGI (M14 melanoma): 7.45 µM
TGI (HCC-2998 colon): > 60.6 µM
TGI (SF-295 CNS): > 56.7 µM
TGI (NCI-H460 lung): > 100 µM
TGI (CCRF-CEM leukemia): 4.98 µM
TGI (KM20L2 colon): 47.8 µM
TGI (LOX IMVI melanoma): 18 µM
TGI (DMS 273 small cell lung): 68.7 µM
TGI (OVCAR-3 ovarian): 15.7 µM
TGI (NCI-H23 lung): 11.2 µM
TGI (SF-268 CNS): 15.2 µM
TGI (KM12 colon): 41.9 µM
TGI (SK-MEL-28 melanoma): 8.29 µM
TGI (HOP-62 NSCLC): 98 µM
TGI (HCT-116 colon): 27.7 µM
TGI (COLO 205 colon): > 34.2 µM
TGI (RPMI-8226 leukemia): 10.1 µM
TGI (RXF 393 renal): 2.89 µM
TGI (786-0 renal): 10.9 µM
TGI (SNB-78 CNS): 52.6 µM
TGI (A549 NSCLC): > 100 µM
TGI (HCT-15 colon): 6.21 µM
TGI (OVCAR-4 ovarian): 24.5 µM
